The assay has as its system CCR2. The assay can be described thus: In vitro assay, TNF-α stimulated CCR2 expression in THP-1 cells (quantitative PCR). The conditions noted are these: THP-1 cells treated with TNF-α. Type of assay: cell-based, human. The source says: In the following study, the activity of cerivastatin and other statins, including simvastatin, lovastatin and atorvastatin, was similarly assessed using the human monocytic cell line THP-1. The THP-1 cells were similarly seeded by preparing a solution of THP-1 cells at 6×10^5 cells/ml and loading the solution of THP-1 cells onto a cell culture plate. The in vitro assay included six (6) treatment groups, including one (1) control group consisting of untreated THP-1 cells, one (1) positive control group consisting of THP-1 cells treated with tumor necrosis factor alpha (TNF-α) alone, four (4) treatment groups consisting of THP-1 cells treated with TNF-α and cerivastatin, TNF-α and simvastatin, TNF-α and lovastatin and TNF-α and atorvastatin. In this study, the THP-1 cells were treated with TNF-α to stimulate the production of CCR2. Each of the six (6) THP-1 cell samples were harvested and collected in a sealable vial and centrifuged to separate the liquid media from the THP-1 cells. The THP-1 cells were then collected and used for RNA extraction and quantitative PCR.

On to `CC(C)c1c(C(=O)Nc2ccccc2)c(-c2ccccc2)c(-c2ccc(F)cc2)n1CC[C@@H](O)C[C@@H](O)CC(=O)O` [atorvastatin], for which the “expression of CCR2” value is recorded as “did not, however, restrict CCR2 expression at levels comparable to cerivastatin”.

For `CC[C@H](C)C(=O)O[C@H]1C[C@@H](C)C=C2C=C[C@H](C)[C@H](CC[C@@H]3C[C@@H](O)CC(=O)O3)[C@H]21` [lovastatin], the “expression of CCR2” value is recorded as “did not, however, restrict CCR2 expression at levels comparable to cerivastatin”.

(Values after patent US10383977B2, “Cardiovascular prostheses” (CorMatrix Cardiovascular, Inc., priority 2011, dated 2019).)
